Data reported in patent publication US10335382B2, “Use of hydrogen sulfide synthesis inhibitors for cancer therapy” (THE BOARD OF REGENTS OF THE UNIVERSITY OF TEXAS SYSTEM, priority 2013, dated 2019).

How the values were obtained:
[1] = target: T1, CBS (Homo sapiens, UniProt P35520); assay: CBS inhibitor screen: H2S production by recombinant CBS (methylene blue assay); type: biochemical; set-up: These studies used full-length human CBS enzyme; made in house; host or cells: E. coli BL21 (DE3) Codon Plus; conditions: 100 μM; homocysteine-induced H2S production; LOPAC library screen; read-out: Inhibition of CBS activity at 100 μM
T1 sequence (P35520 1-551): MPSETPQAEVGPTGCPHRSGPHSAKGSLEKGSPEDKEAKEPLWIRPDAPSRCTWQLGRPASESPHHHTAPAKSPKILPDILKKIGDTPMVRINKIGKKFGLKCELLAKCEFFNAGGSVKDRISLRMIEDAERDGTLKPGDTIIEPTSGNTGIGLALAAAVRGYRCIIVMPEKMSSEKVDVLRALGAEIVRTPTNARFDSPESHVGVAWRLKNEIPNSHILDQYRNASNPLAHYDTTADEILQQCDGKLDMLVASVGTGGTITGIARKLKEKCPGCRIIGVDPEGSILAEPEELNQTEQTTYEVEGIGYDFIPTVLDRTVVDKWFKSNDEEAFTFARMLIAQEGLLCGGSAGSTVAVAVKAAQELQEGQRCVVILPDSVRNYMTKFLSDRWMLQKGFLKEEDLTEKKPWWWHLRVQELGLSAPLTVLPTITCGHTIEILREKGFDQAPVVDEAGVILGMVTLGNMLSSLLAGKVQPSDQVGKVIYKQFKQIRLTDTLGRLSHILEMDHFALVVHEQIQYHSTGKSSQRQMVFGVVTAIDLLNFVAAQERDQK
Excerpt: Studies have been performed characterizing, in detail, the specificity and selectivity of all known H2S biosynthesis inhibitors, using recombinant CBS and CSE enzymes. These studies used full-length human CBS enzyme, and a colorimetric ‘capture’ reaction of the H2S produced by these enzymes, an assay generally known as the ‘methylene blue assay’. This assay is used in a 96-well plate format, as well as in combination with a second screening method based on a fluorescent dye.
Human recombinant CBS is expressed as described (Asimakopoulou et al, (2013) Br J Pharmacol. 169(4):922-32). A library of pharmacologically active compounds (e.g., LOPAC library, Sigma; 1240 compounds) is tested on homocysteine-induced H2S production. In certain aspects the assay is in a 96-well format. In certain aspects H2S production is measured by the methylene blue assay (Asimakopoulou et al., (2013) Br J Pharmacol. 169(4):922-32).
Plasmids, bacterial strains and media. E. coli BL21 (DE3) Codon Plus is used as a host strain to express recombinant human CSE or CBS. CSE cDNA was cloned into pGEX-4T3 and CBS into pGEX-Kg to create N-terminal GSH-S-transferase (GST) fusion proteins. The expression vectors were transformed and plated on LB-agar plates, supplemented with ampicillin (100 μg/mL).
The expression and purification of CSE and CBS is performed as described previously with modifications (Frank et al., (2008) Arch Biochem Biophys 470:64-72; Huang et al., (2009) J Mol Biol 396: 708-18). Briefly, BL21(DE3) Codon Plus cells containing either the expression vector pGEX-4T3/GST-CSE or pGEX-Kg/GST-CBS are grown at 37° C. and 180 r.p.m. in LB broth medium containing 100 μg/mL ampicillin to an absorption of 0.6-0.8 at 600 nm. In addition, 0.3 mM d-ALA is added to the culture containing pGEX-Kg/GST-CBS. Then protein expression is induced by addition of 0.1 mM IPTG. Cells containing pGEX-4T-3/GST-CSE are incubated overnight at 18° C., whereas cells containing pGEXKg/GST-CBS are incubated overnight at 30° C. Culture is then centrifuged at 4° C. and 5000×g for 10 min and the cell pellet was resuspended in PBS (140 mM NaCl, 2.7 mM KCl, 10 mM Na2HPO4, 1.8 mM KH2PO4, pH 7.8) and stored at −20° C. overnight. After thawing, the suspension is sonicated in lysis buffer containing PBS and protease inhibitor cocktail for GST-CSE and PBS, 5 mM DTT, 1% Triton X-100, […] and protease inhibitor cocktail for GST-CBS. After centrifugation at 4° C. for 30 min, the soluble fraction containing either the GST-CSE or the GST-CBS recombinant protein is loaded onto a GSTrap FF 1 mL affinity column that has been equilibrated with binding buffer PBS. The column was consecutively washed with five column volumes of binding buffer. Proteins attached to the column, including GST-CSE or GST-CBS recombinant proteins, are eluted with five column volumes of elution buffer (50 mM Tris-HCl, 10 mM reduced GSH, pH 8.0) and then dialysed and concentrated in 10 mM sodium phosphate buffer pH 8.2 and DTT 1 mM. The purity of the recombinant enzymes was checked by SDS-PAGE on 12% polyacrylamide gels after staining of protein bands with Coomassie Blue R-250. Protein concentration was determined using the DC protein assay kit.
H2S determination is performed according to Stipanuk and Beck ((1982) Biochem J 206:267-77) with some modifications. In the case of the CSE enzyme, an assay consist of a 100 μL reaction mixture containing 5 μg of the purified CSE enzyme, 0.01 mM PLP, 1 mM L-cys, and 50 mM sodium phosphate buffer pH 8.2. For the CBS enzyme, the reaction mixture contains the same as for the CSE plus 1 mM homocysteine. The inhibitors can be added to the reaction before L-cys is added to the solution. Reactions are initiated by transferring the reaction solutions from ice to a 37° C. shaking water bath. After incubation at 37° C. the reaction is terminated by adding 1% ZnAc to trap H2S followed by 10% TCA to precipitate proteins. […]

[2] = tested on: HCT116 colon cancer cell; conditions: cell-based assays (Szabo et al. 2013); cited from earlier work

Which inhibition at 100 µM [1] does the source give for `NOCC(=O)O` [AOAA, aminooxyacetic acid] here?
The inhibition at 100 µM was 98%.

And the “concentrations at which antiproliferative effects and effects on cellular energetics manifest in cell-based assays” value [2]?
The value was “higher (millimolar) concentrations”.
